Common to all, as to type: biochemical
For one assay, the target named is PI3K-alpha (Homo sapiens, UniProt P42336). Description: PI3K-alpha fluorescence polarization assay. Particulars: read-out: PI3Kα Avg. IC50. For orientation: Polarisation of emitted light reports the rotation of a fluorescent probe.
A further assay addresses T1, human TOR (Homo sapiens, UniProt P42345).
T1 construct: FLAG
Description: mTOR enzyme assay (DELFIA, His6-S6K substrate). The note with it: read-out: mTOR Kinase Avg. IC50.

A further assay has as its target PI3K-gamma (Homo sapiens, UniProt P48736). Description: PI3K-gamma fluorescence polarization assay. The gist of the method: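 Enzyme 5 ng; substrate diC8-PI(4,5)P2 2.5 μM; ATP 25 μM; 5 mM HEPES pH 7, 2.5 mM MgCl2; DMSO ≤2%; 1 h, 25° C. Quench 10 mM EDTA. Detect with GRP1 PH domain 100 nM + TMR-IP4 probe 5 nM by polarization.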

Where two headings read alike, the source gives them in different places.

As usually defined, the IC50 is the concentration that gives 50% inhibition.

Sequence of PI3K-alpha (P42336 whole entry, species assumed): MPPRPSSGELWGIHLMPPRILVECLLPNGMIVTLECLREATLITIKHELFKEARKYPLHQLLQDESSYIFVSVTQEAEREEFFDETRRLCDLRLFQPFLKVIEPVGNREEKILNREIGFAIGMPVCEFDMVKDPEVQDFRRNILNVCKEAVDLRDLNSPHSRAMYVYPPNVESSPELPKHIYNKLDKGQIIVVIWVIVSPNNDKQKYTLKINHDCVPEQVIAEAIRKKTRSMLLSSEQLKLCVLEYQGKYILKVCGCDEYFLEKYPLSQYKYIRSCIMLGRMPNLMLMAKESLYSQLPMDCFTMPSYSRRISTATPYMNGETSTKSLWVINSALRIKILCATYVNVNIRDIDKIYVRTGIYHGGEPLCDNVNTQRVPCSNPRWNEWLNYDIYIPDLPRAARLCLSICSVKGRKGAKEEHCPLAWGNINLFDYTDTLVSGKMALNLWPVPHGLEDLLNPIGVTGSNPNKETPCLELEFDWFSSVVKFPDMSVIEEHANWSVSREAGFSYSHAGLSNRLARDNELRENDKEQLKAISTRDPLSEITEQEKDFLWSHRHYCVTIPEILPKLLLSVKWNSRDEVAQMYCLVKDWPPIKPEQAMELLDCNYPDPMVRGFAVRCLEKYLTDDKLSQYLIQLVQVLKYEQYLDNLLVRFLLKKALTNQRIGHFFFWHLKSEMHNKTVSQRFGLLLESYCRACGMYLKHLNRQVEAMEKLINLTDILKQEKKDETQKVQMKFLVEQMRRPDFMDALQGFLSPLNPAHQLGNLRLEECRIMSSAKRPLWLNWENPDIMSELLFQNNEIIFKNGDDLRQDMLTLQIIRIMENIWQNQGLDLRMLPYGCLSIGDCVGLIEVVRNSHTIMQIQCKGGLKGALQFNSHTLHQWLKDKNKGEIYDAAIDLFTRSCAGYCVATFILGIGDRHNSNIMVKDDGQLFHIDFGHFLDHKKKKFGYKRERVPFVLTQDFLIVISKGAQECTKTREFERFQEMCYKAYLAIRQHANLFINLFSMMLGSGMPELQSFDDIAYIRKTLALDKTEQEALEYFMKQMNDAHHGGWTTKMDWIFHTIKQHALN
Sequence of PI3K-alpha (P27986 whole entry partner, species assumed): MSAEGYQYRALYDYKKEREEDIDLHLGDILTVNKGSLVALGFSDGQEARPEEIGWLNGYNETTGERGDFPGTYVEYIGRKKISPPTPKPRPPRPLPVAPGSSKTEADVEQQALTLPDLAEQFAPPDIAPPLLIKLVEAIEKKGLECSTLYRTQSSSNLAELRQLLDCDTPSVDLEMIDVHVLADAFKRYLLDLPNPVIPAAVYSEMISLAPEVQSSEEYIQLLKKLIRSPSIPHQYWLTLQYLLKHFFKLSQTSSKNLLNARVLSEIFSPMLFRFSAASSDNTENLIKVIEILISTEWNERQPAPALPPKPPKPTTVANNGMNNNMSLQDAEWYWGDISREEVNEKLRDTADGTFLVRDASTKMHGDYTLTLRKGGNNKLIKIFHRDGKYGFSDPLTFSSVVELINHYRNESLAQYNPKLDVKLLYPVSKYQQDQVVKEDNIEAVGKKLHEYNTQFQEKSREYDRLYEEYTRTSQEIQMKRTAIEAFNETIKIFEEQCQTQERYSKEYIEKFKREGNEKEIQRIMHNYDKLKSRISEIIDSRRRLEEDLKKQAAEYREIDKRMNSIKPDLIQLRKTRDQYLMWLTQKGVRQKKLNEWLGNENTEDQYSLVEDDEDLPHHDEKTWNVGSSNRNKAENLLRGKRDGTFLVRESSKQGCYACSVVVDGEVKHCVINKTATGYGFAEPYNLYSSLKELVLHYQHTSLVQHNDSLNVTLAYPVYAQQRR
Sequence of PI3K-gamma (P48736 whole entry, species assumed, the tested form may be a part): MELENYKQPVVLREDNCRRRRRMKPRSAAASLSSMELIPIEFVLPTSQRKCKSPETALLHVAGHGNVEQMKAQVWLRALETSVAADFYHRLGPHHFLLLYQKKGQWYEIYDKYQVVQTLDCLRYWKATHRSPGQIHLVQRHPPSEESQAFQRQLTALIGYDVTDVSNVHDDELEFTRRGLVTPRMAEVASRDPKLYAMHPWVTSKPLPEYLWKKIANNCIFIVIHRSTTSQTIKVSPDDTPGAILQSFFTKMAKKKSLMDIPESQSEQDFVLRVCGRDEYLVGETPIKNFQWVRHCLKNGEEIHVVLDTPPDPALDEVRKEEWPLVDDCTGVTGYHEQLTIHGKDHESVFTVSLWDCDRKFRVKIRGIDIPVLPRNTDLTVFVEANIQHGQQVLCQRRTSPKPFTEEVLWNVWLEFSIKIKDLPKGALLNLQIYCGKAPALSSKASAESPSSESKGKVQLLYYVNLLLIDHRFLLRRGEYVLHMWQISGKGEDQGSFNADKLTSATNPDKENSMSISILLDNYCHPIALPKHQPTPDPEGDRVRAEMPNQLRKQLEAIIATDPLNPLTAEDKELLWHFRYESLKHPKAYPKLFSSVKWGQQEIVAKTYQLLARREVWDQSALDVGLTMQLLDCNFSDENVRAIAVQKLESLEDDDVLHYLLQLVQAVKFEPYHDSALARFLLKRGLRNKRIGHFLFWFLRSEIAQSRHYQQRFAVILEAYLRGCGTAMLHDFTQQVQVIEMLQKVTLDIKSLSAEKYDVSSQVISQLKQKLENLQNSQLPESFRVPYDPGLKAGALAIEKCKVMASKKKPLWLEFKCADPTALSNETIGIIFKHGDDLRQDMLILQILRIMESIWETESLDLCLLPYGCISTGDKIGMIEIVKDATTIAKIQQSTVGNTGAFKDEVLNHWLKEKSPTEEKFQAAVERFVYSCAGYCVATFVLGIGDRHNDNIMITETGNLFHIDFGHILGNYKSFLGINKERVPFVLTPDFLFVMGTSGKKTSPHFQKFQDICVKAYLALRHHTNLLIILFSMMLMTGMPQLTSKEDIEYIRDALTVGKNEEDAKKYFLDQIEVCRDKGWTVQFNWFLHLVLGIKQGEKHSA

As to `CNC(=O)Nc1ccc2c(c1)C(=O)/C(=C/c1c(-c3nc(C4CC4)no3)n(CCN3CCN(C)CC3)c3ccc(OC)cc13)O2` [Compound 626, 1-[(2Z)-2-({2-(3-cyclopropyl-1,2,4-oxadiazol-5-yl)-5-methoxy-1-[2-(4-methylpiperazin-1-yl)ethyl]-1H-indol-3-yl}methylidene)-3-oxo-2,3-dihydro-1-benzofuran-5-yl]-3-methylurea], the IC50 turned out to be 3 nM at PI3K-alpha, 66 nM on human TOR and 470 nM at PI3K-gamma (PI3Kγ Avg. IC50).
The corresponding values for `CNC(=O)Nc1ccc2c(c1)C(=O)/C(=C/c1c(C#N)n(CCN3CCN(C)CC3)c3ccc(OC)cc13)O2` [Compound 628, 1-[(2Z)-2-({2-cyano-5-methoxy-1-[2-(4-methylpiperazin-1-yl)ethyl]-1H-indol-3-yl}methylidene)-3-oxo-2,3-dihydro-1-benzofuran-5-yl]-3-methylurea] are 11 nM, 150 nM and 2730 nM.
The corresponding values for `CNC(=O)Nc1ccc2c(c1)C(=O)/C(=C/c1c(-c3cccc(CN(C)C)c3)[nH]c3ccc(OC)cc13)O2` [Compound 629, 1-{(2Z)-2-[(2-{3-[(dimethylamino)methyl]phenyl}-5-methoxy-1H-indol-3-yl)methylidene]-3-oxo-2,3-dihydro-1-benzofuran-5-yl}-3-methylurea] are 1.3 nM, 50 nM and 25.5 nM.
On the same counts, the results for `CNC(=O)Nc1ccc2c(c1)C(=O)/C(=C/c1c(-c3ccc(CN(C)C)cc3)n(CCN3CCN(C)CC3)c3ccc(OC)cc13)O2` [Compound 630, 1-{(2Z)-2-[(2-{4-[(dimethylamino)methyl]phenyl}-5-methoxy-1-[2-(4-methylpiperazin-1-yl)ethyl]-1H-indol-3-yl)methylidene]-3-oxo-2,3-dihydro-1-benzofuran-5-yl}-3-methylurea] are 1.15 nM, 200 nM and 157 nM.
For the compound `CNC(=O)Nc1ccc2c(c1)C(=O)/C(=C/c1c(C(C)(C)C)[nH]c3ccc(OC)cc13)O2` [Compound 631, 1-{(2Z)-2-[(2-tert-butyl-5-methoxy-1H-indol-3-yl)methylidene]-3-oxo-2,3-dihydro-1-benzofuran-5-yl}-3-methylurea], the IC50 at PI3K-alpha turned out to be 5 nM; on human TOR, 2 nM; against PI3K-gamma (PI3Kγ Avg. IC50) it was 54.5 nM.
On to `COc1ccc2c(c1)c(/C=C1\Oc3ccc(NC(=O)Nc4cccnc4)cc3C1=O)c(C)n2CCN1CCN(C)CC1` [Compound 632, 1-[(2Z)-2-({5-methoxy-2-methyl-1-[2-(4-methylpiperazin-1-yl)ethyl]-1H-indol-3-yl}methylidene)-3-oxo-2,3-dihydro-1-benzofuran-5-yl]-3-pyridin-3-ylurea], for which the half-maximal inhibitory concentration (IC50) came to 1.9 nM at PI3K-alpha, 49 nM on human TOR and 246 nM at PI3K-gamma (read-out: PI3Kγ Avg. IC50).
With `COc1ccc2c(c1)c(/C=C1\Oc3ccc(NC(=O)Nc4ccc(N(C)C)cc4)cc3C1=O)c(C)n2CCN1CCN(C)CC1` [Compound 633, 1-[4-(dimethylamino)phenyl]-3-[(2Z)-2-({5-methoxy-2-methyl-1-[2-(4-methylpiperazin-1-yl)ethyl]-1H-indol-3-yl}methylidene)-3-oxo-2,3-dihydro-1-benzofuran-5-yl]urea], the 50% inhibitory concentration (IC50) at PI3K-alpha was found to be 3.87 nM; on human TOR it was 225 nM; against PI3K-gamma (PI3Kγ Avg. IC50), 1910 nM.
On the same counts, the results for `CNC(=O)Nc1ccc2c(c1)C(=O)/C(=C/c1c(-c3c(C)nn(C)c3C)n(CCCC#N)c3ccc(OC)cc13)O2` [Compound 634, 1-[(2Z)-2-{[1-(3-cyanopropyl)-5-methoxy-2-(1,3,5-trimethyl-1H-pyrazol-4-yl)-1H-indol-3-yl]methylene}-3-oxo-2,3-dihydro-1-benzofuran-5-yl]-3-methylurea] are 2.1 nM, 19 nM and 16.5 nM.

(Values after patent US20090311217A1, “3-SUBSTITUTED-1H-INDOLE COMPOUNDS, THEIR USE AS MTOR KINASE AND PI3 KINASE INHIBITORS, AND THEIR SYNTHESES” (priority 2008, published 2009).)
